{
  "source": "patent US9668979B2",
  "about": "“Piperaquine microcapsules and compositions containing them” (ADARE PHARMACEUTICALS S.R.L., priority 2013, dated 2017)",
  "assay": "Compatibility of piperaquine with the coacervation process (heating/cooling cycles; assay, Karl Fischer, XRPD)",
  "assay_type": "physicochemical",
  "conditions": "heating/cooling cycles mimicking the process",
  "method": "Water content: Karl Fischer titration: Ph. Eur. 2.5.12 Method; following sample titration conditions are applied: sample solvent: methanol: formamide 1:1; sample weight: 50 mg; the value of water content in a sample is expressed as % w/w. X-Ray Powder Diffraction (XRPD) measurements are performed on a Philips X′Pert PRO diffractometer (Bragg-Brentano geometry). A compatibility study is carried out on piperaquine to assess the compatibility of the drug with the coacervation process. In particular, piperaquine undergoes heating/cooling cycles mimicking thermal excursions of the process. Then, the following tests are performed both before and after thermal cycles to ascertain the stability of piperaquine: water content analysis (Karl Fisher test); effect of mechanical stress; crystalline structure by XRPD.",
  "data": [
    {"smiles": "Clc1ccc2c(N3CCN(CCCN4CCN(c5ccnc6cc(Cl)ccc56)CC4)CC3)ccnc2c1", "note": "[PQP•4H2O, 4,4′-(1,3-propanediyldi-4,1-piperazinediyl) bis(7-chloroquinoline) phosphate hydrate (1:4:4)]", "values": [
      {"measurement": "Effect of heating/cooling cycle on the drug", "value": "not affected by heating/cooling cycle"}
    ]}
  ]
}
